Measured values published in US20020193374A1, “Reagents and methods for the diagnosis of CMV dissemination” (priority 2000, published 2002).

Legend:
[1] = test system: chemokine receptors; test: binding specificity among chemokine receptors tested; details: all chemokine receptors tested
[2] = biological target: T1, US28 (Human cytomegalovirus, UniProt P69332); test: cytoplasmic calcium mobilization in US28-293 cells; assay type: cell-based, human cytomegalovirus (CMV); set-up: expressed in transfected cells; host or cells: human 293 cells (US28-293 cells); details: compound added before fractalkine (FIG. 2)
Experimental: For each test, 1×10^6 cells were incubated at 37° C. in the cuvette of a PTI spectrometer, and the ratio of 410/490 nm emission plotted over time (typically 2-3 minutes), with compounds added at 5 seconds, followed by fractalkine at 60 seconds. […] Compounds which inhibited fractalkine binding were tested in this assay for the effects on Ca^2+ in this system.
S-(−)-IBZM (from the RBI division of Sigma Chemical Co., St. Louis, Mo., USA, Catalog No. I-139) was evaluated in the assays described in Examples 1 and 2. The IC50 value was 0.6 μM.

[3] = biological target: T1, US28; test: inhibition of 125I-fractalkine binding to US28 expressing cells; set-up: a mouse cell line stably expressing transfected US28 cDNA under the control of a CMV promoter; expressed in transfected cells; species or system human cytomegalovirus (CMV)
Experimental: The US28 expressing cells used in most assays consist of a mouse cell line stably expressing transfected US28 cDNA under the control of a CMV promoter. These cells were cultured in IMDM-5% FBS, and harvested when the concentration was between 0.5-1.0×10^6 cells/mL. Some assays were performed with adherent human 293 cells (US28-293 cells) or membranes. The cells were centrifuged and resuspended in assay buffer (20 mM HEPES, 140 mM NaCl, 1 mM CaCl2, 5 mM MgCl2, and with 0.2% bovine serum albumin) to a concentration of 5.6×10^6 cells/mL. Using the Multi-Probe automated system, set up with 8 assay plates at a time, first 0.09 mL of cells was added to the assay plates containing the compounds. The final concentration of the compounds was 5 μg/mL each (1 μg/mL Comgenex). Then 0.09 mL of ^125I-fractalkine diluted in assay buffer (final concentration ˜[…], with ˜30,000 cpm per well) was added, the plates sealed and incubated for approximately 3 hours at 4 degrees C. on a shaker platform. The assay plates were harvested using Packard filter plates, pre-soaked in PEI solution, on the vacuum harvest apparatus. Scintillation fluid (35 μL) was added to all wells, the plates were sealed and counted in a Top Count scintillation counter. […]
S-(−)-IBZM (from the RBI division of Sigma Chemical Co., St. Louis, Mo., USA, Catalog No. I-139) was evaluated in the assays described in Examples 1 and 2. […]

[4] = biological target: T1, US28; test: reversibility of binding to US28, competition assay with fractalkine; set-up: a mouse cell line stably expressing transfected US28 cDNA under the control of a CMV promoter; expressed in transfected cells; species or system human cytomegalovirus (CMV); details: pre-incubated with US28 expressing cells at 0-10 μg/mL, removed by competition with fractalkine (FIG. 3)
Experimental: FIG. 3 illustrates the reversibility of IBZM binding to US28. In this figure, IBZM is pre-incubated with US28 expressing cells (at concentrations of 0-10 μg/mL) and removed by competition with fractalkine.
In this assay, IBZM is pre-incubated with US28 expressing cells (at concentrations of 0-10 μg/mL) and removed by competition with fractalkine (see FIG. 3).

T1 sequence (P69332 whole entry): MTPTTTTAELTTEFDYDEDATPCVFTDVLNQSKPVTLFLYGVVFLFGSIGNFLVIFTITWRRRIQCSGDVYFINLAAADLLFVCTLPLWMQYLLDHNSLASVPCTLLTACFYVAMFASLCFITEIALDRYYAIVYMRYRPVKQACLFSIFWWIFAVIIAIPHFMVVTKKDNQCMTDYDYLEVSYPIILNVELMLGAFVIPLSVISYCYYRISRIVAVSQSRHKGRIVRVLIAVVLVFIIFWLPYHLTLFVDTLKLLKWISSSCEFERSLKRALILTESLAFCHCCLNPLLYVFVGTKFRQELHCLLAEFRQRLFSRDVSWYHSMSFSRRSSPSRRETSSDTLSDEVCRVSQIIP

## CCN1CCC[C@H]1CNC(=O)c1c(OC)ccc(I)c1O [IBZM, S(−)-3-Iodo-2-hydroxy-6-methoxy-N[(1-ethyl-2-pyrrolidinyl)methyl]benzamide]
[1]
  specificity of binding among chemokine receptors: bind specifically to US28
[2]
  mode of action in calcium mobilization: competitive agonist
[3]
  IC50: 600 nM
[4]
  reversibility of binding to US28: reversible
